Experimental data reported in patent US20100189695A1, “IRAK-1 AS REGULATOR OF DISEASES AND DISORDERS” (priority 2008, published 2010).
No end group written: not given here.

Assays:
Tau = Tau phosphorylation (PHF-Tau) after BLP (Pam3CSK4) in bone marrow derived macrophages, Western blot; format: cell-based, mouse
Protocol: Because Tau phosphorylation is increased in aged human brains and contributes to the pathogenesis of various neurological diseases, such as Alzheimer's and Parkinson's diseases, studies were performed to ask whether the increased levels of full-length IRAK-1 can contribute to Tau phosphorylation. In order to answer this question, a transgenic mouse model known in the art was used. According to this study, either wild type or IRAK-1 deficient bone marrow derived macrophages were treated with BLP (Pam3CSK4) for various times, as indicated in FIGS. 4 and 5. The levels of phosphorylated Tau (PHF-Tau) were detected through Western Blot using anti-phosphorylated Tau antibody.

RARα = RARα levels in BMDMs after LPS, Western blot and real time RT-PCR; format: cell-based, mouse; conditions: for nuclear RARα protein level: 100 ng/ml LPS
Protocol: To determine if IRAK-1 is involved in the nuclear translocation of RARα, the levels of RARα were determined in wild type and IRAK-1 deficient macrophages in the presence and absence of LPS (FIG. 9). […] When experiments are performed in a IRAK-1 deficient background, RARα is not suppressed (lanes 5-8). As expected, when a wild type background is used, IRAK-1 suppression can be seen (lanes 1 and 2).
WT and IRAK-1^−/−. BMDMs were treated with 100 ng/ml LPS for 2 h followed by nuclear protein extraction. The samples were analyzed by immunoblotting using the indicated antibodies. LaminB was used as the loading control. Panel B: the BMDMs derived from WT and IRAK-1^−/− mice were treated with LPS for 2 h followed by RNA extraction. The resulting cDNAs were used to detect RARα transcript levels by real time RT-PCR and standardized against GAPDH levels. Panel C: WT BMDMs were treated with 100 ng/ml LPS for 2 h followed by whole cell protein extraction. The samples were resolved by SDS-PAGE followed by immunoblotting with anti-RARα antibodies. Panel D: BMDM cells derived from WT mice were either untreated or treated with Leptomycin B (LepB) alone or in the presence of LPS. After 2 h incubation, nuclear lysates were prepared and subjected to SDS-PAGE followed by Western blot analysis with RARα specific antibodies. The blots were also probed with LaminB-specific antibodies as a loading control. ns=non-specific.

BMDM cells = assay: Intracellular ROS by DCFDA staining after LPS stimulation; format: cell-based, mouse; conditions: wild type macrophages, LPS 100 ng/ml, 15 minutes or 16 hours
Protocol: (§1) To determine if IRAK-1 is required for LPS-induced activation of Rac1, either wild type or IRAK-1 deficient macrophages were treated with LPS (100 ng/ml).
Intracellular ROS levels were measured by DCFDA staining using fluorescence microscope after LPS (100 ng/ml) stimulation in WT and IRAK1^−/− BMDM cells for 15 min.

Rac1 = Rac1 activity by PBD pull down assay after LPS stimulation; format: cell-based, mouse; conditions: LPS 100 ng/ml, 5 min
Protocol: as §1
Rac1 activity was determined using the PBD pull down assay following LPS stimulation (100 ng/ml) for 5 min in WT and IRAK1^−/− BMDM cells followed by immunoblotting with an anti-Rac1 antibody. […] The bar graphs are densitometric analyses of the active Rac1 specific bands from three independent experiments.

C/EBPδ = assay: LPS-induced C/EBPδ expression, Western blot in macrophages; format: cell-based; conditions: LPS two hours
Protocol: To determine if IRAK-1 is involved in LPS-induced C/EBPδ expression, either wild type or IRAK-1 deficient macrophages were treated with LPS for two hours. […] Either β-actin or lamin-B proteins were used as controls.

PPARα = PPARα protein after LPS, Western blot; format: cell-based; conditions: IRAK-1 deficient cells, LPS vs Control
Text: It was of interest to determine if the transcription factor PPARα is also regulated by IRAK-1.

LXRα = LXRα protein after LPS, Western blot; format: cell-based
Text: The transcriptional factor LXRα was also thought to be a potential target of IRAK-1 suppression. FIG. 14 illustrates Western blot analysis of the LXRα protein in the presence and absence of IRAK-1. Suppression of LXRα can be seen in the wild type cells (lanes 1 and 2).

PGC1α = PGC1α protein after LPS, Western blot; format: cell-based; conditions: LPS vs Control
Protocol: The ability of IRAK-1 to regulate the transcription factor PGC1α was determined in this set of experiments. PGC1α was detected by Western blot analysis in either wild type or IRAK-1 deficient cells in the presence or absence of LPS (FIG. 15).

NOX-1 = NOX-1 expression after LPS in BMDM cells; format: cell-based, mouse
Protocol: To determine if IRAK-1 was involved in the regulation of inflammatory mediator NOX-1, the levels of NOX-1 were determined in wild type and IRAK-1 deficient macrophages in the presence and absence of LPS (FIG. 16).
Panel A: Effect of LPS on NOX-1 expression in WT and IRAK1^−/− BMDM cells. The cells were stimulated with LPS (100 ng/ml) for 2 h. After stimulation, total RNA was prepared using Trizol reagent followed by reverse transcription and the mRNA levels of NOX-1 were analyzed using real-time RT-PCR. Each data point represents the mean+/−standard deviation of at least three independent experiments. *P<0.05, compared with control. Panel B: The protein levels of NOX-1 were analyzed after LPS stimulation in WT and IRAK1^−/− BMDM cells by Western blot using an anti-NOX-1 antibody. The same blots were probed with β-actin as the loading control. Panel C: Chromatin immunoprecipitation analyses were performed to determine LPS-inducible recruitment of C/EBPδ to the promoter region of NOX-1. In contrast, LPS cannot induce C/EBPδ binding to the promoter region of NOX-1 in IRAK-1 deficient macrophages.

MCP-1 = MCP-1 message and protein after LPS in macrophages, real-time PCR and ELISA; format: cell-based; conditions: wild-type cells, LPS stimulation
Protocol: To investigate the possible role of IRAK-1 in control of MCP-1 expression, experiments were performed to assess the level of MCP-1 produced via LPS stimulation. It was postulated that IRAK-1 regulates the expression of MCP-1 through interaction of IRAK-1 with C/EBPδ. To assess this possible interaction, MCP-1 mRNA levels were determined in both wild-type cells and IRAK^−/− cells in the presence and absence of LPS. The results are depicted graphically in FIG. 17.
As shown in the figure, the levels of MCP-1 message (left panel) and protein (right panel) in wild type and IRAK-1 deficient macrophages following LPS stimulation was measured by real-time PCR analyses (left panel) and ELISA (right panel). […] The data fully support a role for IRAK-1 in control of expression of MCP-1 transcription through control of C/EBPδ.

ABCA1 = ABCA1 induction by ATRA in BMDMs, real time RT-PCR; format: cell-based, mouse; conditions: IRAK1−/− vs WT BMDMs, 50 nM ATRA, 6 h
Protocol: WT and IRAK1^−/− BMDM cells were either untreated or treated with ATRA (50 nM) followed by Western blot analysis of cell extracts using ABCA1 specific antibodies. Antibodies against β-actin were used as the internal loading control. Panel B: the band intensities were quantitated using the Fujifilm Multi Gauge software and the fold induction is depicted after normalization against β-actin levels. Panel C: IRAK-1 expression was knocked-down using IRAK-1 specific siRNA (IRAK1). Wild type macrophages treated with either control siRNA or IRAK-1 specific siRNA were stimulated with 50 nM ATRA for 6 hrs. The levels of ABCA1 protein were determined by Western blot using anti-ABCA1 antibody. The levels of beta-actin were probed and served as equal loading controls. The levels of IRAK-1 were probed to make efficient knock-down with the IRAK-1 specific siRNA treatment. […] The cells were […] either untreated or treated with 50 nM ATRA for 6 h and the expression of ABCA1 and ABCG1 transcripts were measured by real time RT-PCR assays and standardized against GAPDH levels.

Triacylated Cys-Ser-Lys-Lys-Lys-Lys (CSKKKK; not fully specified (residue 1, N-terminus); printed as Triacylated Cys-Ser-Lys-Lys-Lys-Lys) [Pam3CSK4]
Tau phosphorylation (Tau; IRAK-1 deficient bone marrow derived macrophages): Tau phosphorylation is ablated | Tau phosphorylation (Tau; wild type bone marrow derived macrophages): led to increased Tau phosphorylation

CCC(=C/[C@H](C)C/C=C/C(C)=C/[C@@H](C)C(=O)[C@@H](C)[C@H](O)[C@@H](C)C/C(C)=C/C(=O)O)/C=C/[C@@H]1OC(=O)C=C[C@@H]1C [LepB, Leptomycin B]
LPS-induced suppression of nuclear RARα in the presence of LepB (RARα; wild type BMDM, LepB with LPS, 2 h): RARα suppression by IRAK-1 is not seen

lipopolysaccharide [LPS]
reactive oxygen species levels (BMDM cells): induced significantly higher levels of reactive oxygen species | activation of Rac1 (Rac1; IRAK-1 deficient macrophages): No induction was seen | relative Rac1 activity (Rac1; wild type macrophages): significantly higher | C/EBPδ expression (C/EBPδ; IRAK-1 deficient macrophages): no induction | C/EBPδ expression (C/EBPδ; wild type macrophages): induction | nuclear RARα protein level (RARα; IRAK-1 deficient BMDMs, 2 h): no significant suppression | nuclear RARα protein level (RARα; wild type BMDMs, 2 h): suppression of RARα protein | RARα relative transcript levels (RARα; wild type and IRAK-1 deficient BMDMs, LPS 2 h, standardized against GAPDH): approximately equal | PPARα protein (PPARα): PPARα was seen in both the Control and LPS samples | amount of LXRα in the presence or absence of LPS (LXRα; IRAK-1 deficient cells): approximately the same | amount of LXRα without LPS induction relative to LPS-induced cells (LXRα; wild type cells): four times | PGC1α protein (PGC1α; IRAK-1 deficient cells): did not show the LPS-induced suppression | PGC1α protein (PGC1α; wild type cells): much less of the PGC1α protein | NOX-1 protein (NOX-1; IRAK-1 deficient cells): Induction was seen to a lesser extent | NOX-1 protein (NOX-1; wild type macrophage cells): LPS-induction of NOX-1 | MCP-1 transcription and protein expression (MCP-1): significant increase in induction of MCP-1 transcription and protein expression

CC1=C(/C=C/C(C)=C/C=C/C(C)=C/C(=O)O)C(C)(C)CCC1 [ATRA, all trans retinoic acid]
ABCA1 mRNA induction (ABCA1): higher induction of ABCA1 mRNA
